Test results taken from article PMC10820640, “An Intravenous Pharmacokinetic Study of Cannabidiol Solutions in Piglets through the Application of a Validated Ultra-High-Pressure Liquid Chromatography Coupled to Tandem Mass Spectrometry Method for the Simultaneous Quantification of CBD and Its Carboxylated Metabolite in Plasma” (Pharmaceutics, 2024).
Read-outs that look alike come from different tables or passages of the source.

Experiments:
[1] = Intravenous pharmacokinetic study of CBD:HP-β-CD solution in piglets (UHPLC-MS/MS plasma quantification); type: in vivo, Large White piglets; parameters: A (macro constant): unit not given beside the values; γ (macro constant) / α (macro constant) / B (macro constant) / β (macro constant) / C (macro constant): unit not given here; settings: for AUC(0-t) / Cmax: piglet plasma, IV 0.3 mg/kg CBD, non-compartmental analysis, normalized to dose
Experimental: The in vivo study was performed within the PigForLife® (CER Group Facilities) GLP structure (Marloie, Belgium). The study protocols were approved by the Local Ethical Commission before starting the study and complied with the Belgian regulation as published in the «Royal Decree of 29 May 2013 on the protection of experimental animals, A.G.W. 30 November 2017».
Sterile and isotonic CBD:HP-β-CD 100 mM (1.2 mg CBD/mL) solutions were prepared. A HP-β-CD stock solution (200 mM) was prepared by dissolving 31.0 g of HP-β-CD up to 100 mL with milliQ water. CBD:HP-β-CD complexes were prepared by adding an excess of CBD (45 mg) powder to 5 mL of milliQ water and 5 mL of the HP-β-CD stock solution, added with 84 mg of NaCl. The suspensions were kept in a rotating water bath set at 37 °C for 12 h. The suspensions were finally filtered through a 0.2 µm PHENEX® PTFE filter in laminar flow insulator conditions. The osmolarity and the pH value of the solutions were determined using a Freezing Point Osmometer (Löser, Delta Labo, Avignon, France) and a pH meter (Seven Easy, Mettler Toledo, Zaventem, Belgium), respectively. The solutions were injected to three Large White piglets (male and female, between 8 and 10 kg) at a dose of 0.3 mg/kg, as detailed in Table 3.
The animals were born on site and used in good health. The animals were housed together in pens of about 40 m^2 and an enriched environment was provided. Natural temperature and light cycles were used in a straw litter. During storage, the animals were fed ad libitum with a balanced pellet diet and were not given any curative or prophylactic veterinary drugs or additives during the study period. Tap water was available ad libitum. The piglets were fasted overnight ([…]) before receiving the formulations. All piglets were clinically examined before the study and before sampling. Blood samples (2 mL in EDTA tubes) were taken at 5 min, 10 min, 20 min, 30 min 45 min, 60 min, 90 min, 2 h, 4 h and 8 h. Blood samples were stored at 4 °C and centrifuged at 2500× g for 10 min. Plasma samples were then frozen at −80 °C until their analysis.
Pharmacokinetic analyses were evaluated by using the software Phoenix WinNonlin 8.4 version (Certara, Princeton, NJ, USA). Cmax and AUClast were determined through a non-compartmental pharmacokinetic analysis using the linear trapezoidal linear interpolation calculation method. Obtained values were normalized do the dose administered. The volumes of distribution (V1 and Vss), clearance and macro (A, B, C, α, β, γ) and micro (k10, k12, k21, k13, k31) constants were determined assuming a 2- or 3-compartment model. The model offering the best compromise between fitting and the number of parameters was selected based on an F test approach.

[2] = parameters: method as in PMID 34400185; settings: reported in the literature; cited from earlier work
[3] = parameters: method as in PMID 30534073; settings: humans, cited from earlier work
[4] = parameters: method as in PMID 35895770; settings: horses, IV CBD in DMSO 0.1 mg/kg; cited from earlier work
[5] = parameters: method as in PMID 31173966; settings: mice, CBD emulsion IV 10 mg/kg; cited from earlier work
[6] = both sexes, Large White, pig, n = 3
[7] = IV-bolus three-compartment model, n = 2
[8] = IV-bolus three-compartment model, n = 3
[9] = IV-bolus two-compartment model, n = 2
[10] = IV-bolus two-compartment model, n = 3
[11] = piglets, IV, two-compartment model

C=C(C)C1CCC(C(=O)O)=CC1c1c(O)cc(CCCCC)cc1O (centres unmarked) [7-COOH-CBD, 7-COOH-cannabidiol]
AUC(0-t) [1, 6]: 3.93 ± 0.572 µg·h/mL | Cmax [1, 6]: 0.61 ± 0.169 µg/mL | earliest time metabolite concentrations were observed ([1]; piglet plasma after IV CBD 0.3 mg/kg, first sampling point): 5 min | metabolite plasmatic concentration relative to that of CBD [2]: 40 fold

C=C(C)[C@@H]1CCC(C)=C[C@H]1c1c(O)cc(CCCCC)cc1O [CBD, Cannabidiol]
A (macro constant) [1, 7]: 638.52 ± 60.91 | B (macro constant) [1, 7]: 330.39 ± 41.34 | C (macro constant) [1, 7]: 17.71 ± 15.74 | α (macro constant) [1, 7]: 12.28 ± 7.90 | β (macro constant) [1, 7]: 0.80 ± 0.19 | γ (macro constant) [1, 7]: 0.09 ± 0.12 | A (macro constant) [1, 8]: 640.14 ± 43.16 | C (macro constant) [1, 8]: 10.56 ± 6.33 | β (macro constant) [1, 8]: 0.70 ± 0.21 | γ (macro constant) [1, 8]: 316.02 ± 38.40 | A (macro constant) [1, 9]: 500.89 ± 129.30 | B (macro constant) [1, 9]: 133.91 ± 105.05 | α (macro constant) [1, 9]: 2.75 ± 2.18 | β (macro constant) [1, 9]: 0.33 ± 0.10 | A (macro constant) [1, 10]: 542.53 ± 116.45 | B (macro constant) [1, 10]: 168.95 ± 95.92 | α (macro constant) [1, 10]: 3.71 ± 2.26 | β (macro constant) [1, 10]: 0.34 ± 0.07 | clearance ([1]; both sexes, Large White, pig, plasma, 0.3 mg/kg, piglets, IV, two-compartment model, read-out: Cl (clearance) (converted)): 25.2 mL/min | Vd ([1]; both sexes, Large White, pig, plasma, 0.3 mg/kg, piglets, IV, two-compartment model, read-out: Vss (volume at steady state)): 3.26 ± 0.287 L | AUC(0-t) [1, 6]: 0.639 ± 0.0792 µg·h/mL | Cmax [1, 6]: 0.6 ± 0.0759 µg/mL | half-life ([1]; both sexes, Large White, pig, piglets, IV 0.3 mg/kg CBD:HP-β-CD solution, experimental plasma profile, read-out: apparent distribution half-life (converted)): 0.25 h | elimination half-life ([1]; piglets, IV 0.3 mg/kg CBD:HP-β-CD solution, experimental plasma profile): two | Capacity (k12/k21) [1, 11]: 1.5 | Depth (k10/k12) [1, 11]: 0.58 | V1 (volume of the central compartment) [1, 11]: 1512.43 ± 538.41 mL | fc (ratio of quantity in the central compartment over total quantity, β/k1-0) [1, 11]: 0.33 | k1-0 (micro constant) [1, 11]: 1.04 ± 0.20 h⁻¹ | k1-2 (micro constant) [1, 11]: 1.80 ± 1.43 h⁻¹ | k2-1 (micro constant) [1, 11]: 1.20 ± 0.74 h⁻¹ | half-life of elimination (t1/2) ([3]; after chronic oral administration): several days | clearance ([3]; following an intravenous injection): 74.4 L/h | half-life of elimination (t1/2) ([3]; pulmonary or single oral administration): around one or two | half-life [4]: 3.15 h | clearance [5]: 3.4 L/h/kg | half-life [5]: 3.9 h
